Data on 17 molecules can be found in PubChem BioAssay AID192 (DTP/NCI, 2004).

Values joined by “and” are separate entries in the source; they are usually repeats but may differ in a detail not shown here. Equal entries are not always repeated. Toxic doses and inconclusive results are not listed.

The subject of this test is BDF1 mice, B16 melanoma ip, median survival T/C. The test is described as follows: NCI In Vivo Anticancer Drug Screen. Data for tumor model B16 Melanoma (intraperitoneal) in B6D2F1 (BDF1) mice. The following applies: endpoint: median survival time, higher = longer survival. The procedure:
The antitumor activity of compounds was measured in mice bearing transplantable tumors. Survival or tumor size were measured and the results are expressed as the measurement made in the treated group (T) divided by the measurement made in the vehicle treated control group (C). The tumor model used in this assay is B16 Melanoma (intraperitoneal) in B6D2F1 (BDF1) mice

Setting [1] is: dose: 12.5 mg/kg/injection, schedule: Q01DX009 (ip), vehicle: Klucel (hydroxypropylcellulose) (HPC).
[2] abbreviates: dose: 25.0 mg/kg/injection, schedule: Q01DX009 (ip), vehicle: Klucel (hydroxypropylcellulose) (HPC).
Where [3] appears, read: dose: 50.0 mg/kg/injection, schedule: Q01DX009 (ip), vehicle: Klucel (hydroxypropylcellulose) (HPC).
Setting [4] is: dose: 6.25 mg/kg/injection, schedule: Q01DX009 (ip), vehicle: saline with Tween-80.
The mark [5] stands for this setting: dose: 12.5 mg/kg/injection, schedule: Q01DX009 (ip), vehicle: saline with Tween-80.
Where [6] appears, read: dose: 25.0 mg/kg/injection, schedule: Q01DX009 (ip), vehicle: saline with Tween-80.
[7] abbreviates: dose: 100.0 mg/kg/injection, schedule: Q01DX009 (ip), vehicle: Klucel (hydroxypropylcellulose) (HPC).
Setting [8] is: dose: 200.0 mg/kg/injection, schedule: Q01DX009 (ip), vehicle: Klucel (hydroxypropylcellulose) (HPC).

Turning to `COC1=C2CC(C)CC(OC)C(O)C(C)/C=C(\C)C(OC(N)=O)C(OC)/C=C\C=C(/C)C(=O)NC(=C(/C=N/N3CCOCC3)C1=O)C2=O` (configuration not stated), the T/C is 106 % of control (dose: 12.5 mg/kg/injection, schedule: Q01DX005 (ip), vehicle: other); 97 % of control (dose: 25.0 mg/kg/injection, schedule: Q01DX005 (ip), vehicle: other); 106 % of control (dose: 100.0 mg/kg/injection, schedule: Q01DX005 (ip), vehicle: other); 89 % of control (dose: 200.0 mg/kg/injection, schedule: Q01DX005 (ip), vehicle: other).
Regarding `F`, the T/C by setting is: (dose: 6.25 mg/kg/injection, schedule: Q01DX009 (ip), vehicle: saline) 105 % of control; (dose: 12.5 mg/kg/injection, schedule: Q01DX009 (ip), vehicle: saline) 107 % of control; (dose: 12.5 mg/kg/injection, schedule: Q04DX003 (ip), vehicle: saline) 113 % of control; (dose: 25.0 mg/kg/injection, schedule: Q01DX009 (ip), vehicle: saline) 92 % of control; (dose: 25.0 mg/kg/injection, schedule: Q04DX003 (ip), vehicle: saline) 100 % of control and 124 % of control; (dose: 50.0 mg/kg/injection, schedule: Q04DX003 (ip), vehicle: saline) 94 % of control.
With `COc1ccc(C2c3cc4c(c(OC)c3CC3OCC(=O)C32)OCO4)cc1OC` (configuration not stated), the T/C under setting [1] was 102 % of control, the T/C under setting [2] is 102 % of control and the T/C under setting [3] is 117 % of control.
On to `O=C(O)C1(C(=O)O)CCC1.[NH2-].[NH2-].[Pt+2]`, for which the T/C is 112 % of control (dose: 2.0 mg/kg/injection, schedule: Q01DX009 (ip), vehicle: saline); 115 % of control (dose: 4.0 mg/kg/injection, schedule: Q01DX009 (ip), vehicle: saline); 123 % of control (dose: 6.25 mg/kg/injection, schedule: Q01DX009 (ip), vehicle: other); 150 % of control (dose: 8.0 mg/kg/injection, schedule: Q01DX009 (ip), vehicle: saline); 176 % of control (dose: 12.5 mg/kg/injection, schedule: Q01DX009 (ip), vehicle: other); 176 % of control (dose: 16.0 mg/kg/injection, schedule: Q01DX009 (ip), vehicle: saline). For the same molecule, the T/C is, setting by setting: (dose: 25.0 mg/kg/injection, schedule: Q01DX009 (ip), vehicle: other) 160 % of control and 164 % of control; (dose: 32.0 mg/kg/injection, schedule: Q01DX009 (ip), vehicle: saline) 176 % of control.
With `CCCCCCCCSC1=C(Cl)C(=O)C(OC)=C(OC)C1=O`, for the setting “dose: 3.13 mg/kg/injection, schedule: Q01DX009 (ip), vehicle: saline with Tween-80”, the T/C is 88 % of control.
As to `CCCCC(CCCC)c1ccccn1`, the T/C runs as follows: under setting [4], 104 % of control; under setting [5], 108 % of control; under setting [6], 102 % of control.
Regarding `CCC1CN2CCc3cc(OC)c(OC)cc3C2CC1CC1c2cc(OC)c(OC)cc2CCN1C(=O)C(Cc1c[nH]c2ccccc12)NC(=O)OC(C)(C)C` (configuration not stated), the T/C (dose: 8.0 mg/kg/injection, schedule: Q04DX003 (ip), vehicle: saline with Tween-80) is 102 % of control; the T/C (dose: 16.0 mg/kg/injection, schedule: Q04DX003 (ip), vehicle: saline with Tween-80) was 102 % of control; the T/C (dose: 32.0 mg/kg/injection, schedule: Q04DX003 (ip), vehicle: saline with Tween-80) is 100 % of control; the T/C (dose: 64.0 mg/kg/injection, schedule: Q04DX003 (ip), vehicle: saline with Tween-80) is 110 % of control; the T/C (dose: 128.0 mg/kg/injection, schedule: Q04DX003 (ip), vehicle: saline with Tween-80) is 89 % of control.
On to `CCOC(=O)N1Cc2cc3cc(Cl)ccc3nc2C1`, for which the T/C (dose: 8.0 mg/kg/injection, schedule: Q01DX009 (ip), vehicle: saline with Tween-80) was 103 % of control; the T/C (dose: 16.0 mg/kg/injection, schedule: Q01DX009 (ip), vehicle: saline with Tween-80) was 95 % of control; the T/C (dose: 32.0 mg/kg/injection, schedule: Q01DX009 (ip), vehicle: saline with Tween-80) was 93 % of control; the T/C (dose: 64.0 mg/kg/injection, schedule: Q01DX009 (ip), vehicle: saline with Tween-80) is 112 % of control.
`CCOC(=O)c1ccc(NC(=O)Nc2nc(C)cs2)cc1`: the T/C is 111 % of control (dose: 25.0 mg/kg/injection, schedule: Q01DX009 (ip), vehicle: distilled water + Tween-80) and 120 % of control (dose: 200.0 mg/kg/injection, schedule: Q01DX009 (ip), vehicle: distilled water + Tween-80).
In the case of `C1=C(c2ccccc2)CCC1`, the T/C (dose: 50.0 mg/kg/injection, schedule: Q01DX009 (ip), vehicle: saline) was 97 % of control and the T/C (dose: 100.0 mg/kg/injection, schedule: Q01DX009 (ip), vehicle: saline) was 88 % of control.
On to `COc1c(CNC(=O)CCl)cc2[nH]c(C)cc2c1CNC(=O)CCl`, for which the T/C reads like this: (dose: 6.25 mg/kg/injection, schedule: Q01DX009 (ip), vehicle: Klucel (hydroxypropylcellulose) (HPC)) 101 % of control; under setting [1], 106 % of control; under setting [2], 103 % of control; under setting [3], 104 % of control; under setting [7], 108 % of control; under setting [8], 97 % of control.
Take `O=C(O)C1=CCC=CC1`: the T/C by setting is: (dose: 100.0 mg/kg/injection, schedule: Q04DX003 (ip), vehicle: saline with Tween-80) 100 % of control; (dose: 200.0 mg/kg/injection, schedule: Q04DX003 (ip), vehicle: saline with Tween-80) 103 % of control; (dose: 400.0 mg/kg/injection, schedule: Q04DX003 (ip), vehicle: saline with Tween-80) 96 % of control.
For `O=C(Nc1cc(Cl)ccc1Cl)c1ccc(Cl)cc1Cl`, the T/C runs as follows: under setting [4], 97 % of control; (dose: 6.25 mg/kg/injection, schedule: Q04DX003 (ip), vehicle: saline with Tween-80) 92 % of control; under setting [5], 93 % of control; (dose: 12.5 mg/kg/injection, schedule: Q04DX003 (ip), vehicle: saline with Tween-80) 96 % of control; under setting [6], 100 % of control; (dose: 25.0 mg/kg/injection, schedule: Q04DX003 (ip), vehicle: saline with Tween-80) 88 % of control.
As for `C/C=C1\C[C@@H]2C(OC)Nc3cc(O)c(OC)cc3C(=O)N2C1` (some centres not stated), the T/C is, setting by setting: (dose: 0.03 mg/kg/injection, schedule: Q01DX009 (ip), vehicle: saline) 100 % of control; (dose: 0.06 mg/kg/injection, schedule: Q01DX009 (ip), vehicle: saline) 112 % of control; (dose: 0.12 mg/kg/injection, schedule: Q01DX009 (ip), vehicle: saline) 115 % of control; (dose: 0.12 mg/kg/injection, schedule: Q01DX009 (ip), vehicle: suspension in saline) 105 % of control; (dose: 0.25 mg/kg/injection, schedule: Q01DX009 (ip), vehicle: saline) 112 % of control; (dose: 0.25 mg/kg/injection, schedule: Q01DX009 (ip), vehicle: suspension in saline) 96 % of control. In addition, the T/C is 115 % of control (dose: 0.5 mg/kg/injection, schedule: Q01DX009 (ip), vehicle: saline) and 96 % of control (dose: 0.5 mg/kg/injection, schedule: Q01DX009 (ip), vehicle: suspension in saline).
`C[CH2][Ge]([CH2]C)[CH2]C.C[CH2][Ge]([CH2]C)[CH2]C.C[CH2][Ge]([CH2]C)[O][Ge]([CH2]C)[CH2]C`: the T/C runs as follows: under setting [4], 101 % of control; under setting [5], 100 % of control; under setting [6], 101 % of control; (dose: 50.0 mg/kg/injection, schedule: Q01DX009 (ip), vehicle: saline with Tween-80) 91 % of control; (dose: 100.0 mg/kg/injection, schedule: Q01DX009 (ip), vehicle: saline with Tween-80) 100 % of control.
Take `Cc1cc2nc(-c3ccccc3O)[nH]c2cc1C`: the T/C under setting [7] was 93 % of control and 94 % of control; the T/C under setting [8] is 94 % of control and 106 % of control.
Take `C/C1=C/C2=CC(C)C[C@@H]2C(=O)[C@]2(C)C(=O)CC(C)(C)[C@H]2CC1=O` (some centres not stated): the T/C (dose: 0.13 mg/kg/injection, schedule: Q01DX009 (ip), vehicle: Klucel (hydroxypropylcellulose) (HPC)) was 102 % of control; the T/C (dose: 0.25 mg/kg/injection, schedule: Q01DX009 (ip), vehicle: Klucel (hydroxypropylcellulose) (HPC)) is 96 % of control; the T/C (dose: 0.5 mg/kg/injection, schedule: Q01DX009 (ip), vehicle: Klucel (hydroxypropylcellulose) (HPC)) is 96 % of control; the T/C (dose: 1.0 mg/kg/injection, schedule: Q01DX009 (ip), vehicle: Klucel (hydroxypropylcellulose) (HPC)) was 91 % of control.
